Measured values from patent US12577206B2 (BRISTOL-MYERS SQUIBB COMPANY, priority 2020, dated 2026).

Assays:
human FPR1 = biological target: T1, human FPR1 (Homo sapiens, UniProt P21462); assay: FPR1 cyclic adenosine monophosphate (cAMP) assay; assay type: cell-based; conditions: CHO cells overexpressing human FPR1; forskolin 10 μM; inhibition of cAMP production; HTRF; read-out: hFPR1 cAMP2 EC50
T1 sequence (P21462 1-350): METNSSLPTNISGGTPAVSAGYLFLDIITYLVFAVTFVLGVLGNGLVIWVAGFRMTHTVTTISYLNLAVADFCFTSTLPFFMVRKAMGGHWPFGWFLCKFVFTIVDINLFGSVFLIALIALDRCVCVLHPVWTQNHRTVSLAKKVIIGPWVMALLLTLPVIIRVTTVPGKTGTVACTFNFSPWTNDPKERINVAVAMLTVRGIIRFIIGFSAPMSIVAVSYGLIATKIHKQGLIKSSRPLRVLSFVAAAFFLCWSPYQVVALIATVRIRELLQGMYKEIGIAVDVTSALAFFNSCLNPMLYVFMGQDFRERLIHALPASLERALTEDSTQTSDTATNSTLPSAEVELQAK
Method in brief: (§1)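 CHO cells overexpressing human FPR1 (4,000/well) or FPR2 (2,000/well) were incubated 30 min at room temperature with compound (0.020 nM to 100 μM, 1% DMSO), IBMX 200 μM, and forskolin at 10 μM (FPR1) or 5 μM (FPR2), all final. HTRF cAMP read-out; inhibition fitted by 4-parameter logistic equation.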

human FPR2 = biological target: T2, human FPR2 (Homo sapiens, UniProt P25090); assay: FPR2 cyclic adenosine monophosphate (cAMP) assay; assay type: cell-based; conditions: CHO cells overexpressing human FPR2; forskolin 5 μM; inhibition of cAMP production; HTRF; read-out: hFPR2 cAMP2 EC50
T2 sequence (P25090 1-351): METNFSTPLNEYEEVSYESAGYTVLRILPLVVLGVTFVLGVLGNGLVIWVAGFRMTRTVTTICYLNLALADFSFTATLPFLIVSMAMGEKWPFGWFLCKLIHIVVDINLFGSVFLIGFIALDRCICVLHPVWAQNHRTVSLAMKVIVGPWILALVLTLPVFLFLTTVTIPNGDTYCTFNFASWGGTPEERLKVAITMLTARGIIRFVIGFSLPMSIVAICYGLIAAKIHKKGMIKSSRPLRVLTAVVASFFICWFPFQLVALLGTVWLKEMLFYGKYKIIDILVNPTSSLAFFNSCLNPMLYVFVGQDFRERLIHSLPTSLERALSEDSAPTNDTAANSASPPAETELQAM
Method in brief: as §1

Row | SMILES | EC50 (human FPR1) [nM] | EC50 (human FPR2) [nM]
1 | COc1cc(F)c(-c2c(NC(=O)c3ccc(OC(F)F)cc3)c(=O)n(-c3nc(NCC(=O)N(C)C)ccc3C(F)(F)F)n2C)c(F)c1 [Example 252, N-[5-(2,6-difluoro-4-methoxyphenyl)-2-(6-{[(dimethylcarbamoyl)methyl]-amino}-3-(trifluoromethyl)pyridin-2-yl)-1-methyl-3-oxo-2,3-dihydro-1H-pyrazol-4-yl]-4-(difluoromethoxy)benzamide] | > 10000 | 12
2 | COc1cc(F)c(-c2c(NC(=O)c3ccc(OC(F)F)cc3)c(=O)n(-c3ccnc(OC)c3)n2C)c(F)c1 [Example 115, N-[5-(2,6-difluoro-4-methoxyphenyl)-2-(2-methoxypyridin-4-yl)-1-methyl-3-oxo-2,3-dihydro-1H-pyrazol-4-yl]-4-(difluoromethoxy)benzamide] | 280 | 5
3 | COc1cc(F)c(-c2c(NC(=O)c3ccc(OC(F)F)cc3)c(=O)n(C(C)C)n2C)c(F)c1 [Example 18, N-[5-(2,6-difluoro-4-methoxyphenyl)-1-methyl-3-oxo-2-(propan-2-yl)-2,3-dihydro-1H-pyrazol-4-yl]-4-(difluoromethoxy)benzamide] | 4100 | 53
4 | COc1cc(F)c(-c2c(NC(=O)c3ccc(OC(F)F)cc3)c(=O)n(-c3nc(OCC4CC4)ccc3C(F)(F)F)n2C)c(F)c1 [Example 287, N-{2-[6-(cyclopropylmethoxy)-3-(trifluoromethyl)pyridin-2-yl]-5-(2,6-difluoro-4-methoxyphenyl)-1-methyl-3-oxo-2,3-dihydro-1H-pyrazol-4-yl}-4-(difluoromethoxy)benzamide] | > 5000 | 13
5 | COc1cc(F)c(-c2c(NC(=O)c3ccc(OC(F)(F)F)cc3)c(=O)n(-c3ncccc3C(F)(F)F)n2C)c(F)c1 [Example 154, N-[5-(2,6-difluoro-4-methoxyphenyl)-1-methyl-3-oxo-2-[3-(trifluoromethyl)pyridin-2-yl]-2,3-dihydro-1H-pyrazol-4-yl]-4-(trifluoromethoxy)benzamide] | > 10000 | 4
6 | COc1cc(OC(CO)C(F)(F)F)nc(-n2c(=O)c(NC(=O)c3ccc(OC(F)F)cc3)c(-c3c(F)cc(OC)cc3F)n2C)c1 (stereo not shown) [Example 390, N-(5-(2,6-Difluoro-4-methoxyphenyl)-2-(4-methoxy-6-((1,1,1-trifluoro-3-hydroxypropan-2-yl)oxy)pyridin-2-yl)-1-methyl-3-oxo-2,3-dihydro-1H-pyrazol-4-yl)-4-(difluoromethoxy)benzamide] | 2200 | 10
7 | COc1cc(F)c(-c2c(NC(=O)c3ccc(OC(F)F)cc3)c(=O)n(-c3cc(C#N)ccc3C#N)n2C)c(F)c1 [Example 179, N-[2-(2,5-dicyanophenyl)-5-(2,6-difluoro-4-methoxyphenyl)-1-methyl-3-oxo-2,3-dihydro-1H-pyrazol-4-yl]-4-(difluoromethoxy)benzamide] | 300 | 23
8 | COc1cc(F)c(-c2c(NC(=O)c3ccc(OC(F)F)cc3)c(=O)n(-c3cccc(N4CCN(CCCO)CC4)n3)n2C)c(F)c1 [Example 208, N-[5-(2,6-difluoro-4-methoxyphenyl)-2-{6-[4-(3-hydroxypropyl)piperazin-1-yl]pyridin-2-yl}-1-methyl-3-oxo-2,3-dihydro-1H-pyrazol 4-yl]-4-(difluoromethoxy)benzamide] | > 10000 | 3
9 | CCOc1ccc(C(F)(F)F)c(-n2c(=O)c(NC(=O)c3ccc(OC(F)F)cc3)c(-c3c(F)cc(OC)cc3F)n2C)n1 [Example 286, N-[5-(2,6-difluoro-4-methoxyphenyl)-2-[6-ethoxy-3-(trifluoromethyl)pyridin-2-yl]-1-methyl-3-oxo-2,3-dihydro-1H-pyrazol-4-yl]-4-(difluoromethoxy)benzamide] | > 5000 | 3
10 | COc1cc(F)c(-c2c(NC(=O)c3ccc(OC(F)F)cc3)c(=O)n(-c3nc(NC4CC4)ccc3C(F)(F)F)n2C)c(F)c1 [Example 251, N-{2-[6-(cyclopropylamino)-3-(trifluoromethyl)pyridin-2-yl]-5-(2,6-difluoro-4-methoxyphenyl)-1-methyl-3-oxo-2,3-dihydro-1H-pyrazol-4-yl}-4-(difluoromethoxy)benzamide] | > 10000 | 2
11 | COc1cc(F)c(-c2c(NC(=O)c3ccc(OC(F)F)cc3)c(=O)n(-c3cccc(-n4ccc(C)n4)n3)n2C)c(F)c1 [Example 69, N-[5-(2,6-difluoro-4-methoxyphenyl)-1-methyl-2-[6-(3-methyl-1H-pyrazol-1-yl)pyridin-2-yl]-3-oxo-2,3-dihydro-1H-pyrazol-4-yl]-4-(difluoromethoxy)benzamide] | 5 | 5
12 | COc1cc(F)c(-c2c(NC(=O)c3ccc(Cl)cc3)c(=O)n(-c3ccc(Cl)cn3)n2C)c(F)c1 [Example 43, 4-chloro-N-[2-(5-chloropyridin-2-yl)-5-(2,6-difluoro-4-methoxyphenyl)-1-methyl-3-oxo-2,3-dihydro-1H-pyrazol-4-yl]benzamide] | > 10000 | 41
13 | COc1cc(N2C[C@@H](C)N(C)[C@@H](C)C2)nc(-n2c(=O)c(NC(=O)c3ccc(OC(F)F)cc3)c(-c3c(F)cc(OC)cc3F)n2C)c1 [Example 93, N-[5-(2,6-difluoro-4-methoxyphenyl)-2-{4-methoxy-6-[(3R,5S)-3,4,5-trimethylpiperazin-1-yl]pyridin-2-yl}-1-methyl-3-oxo-2,3-dihydro-1H-pyrazol-4-yl]-4-(difluoromethoxy)benzamide] | 1800 | 2
14 | COc1cc(F)c(-c2c(NC(=O)c3ccc(OC(F)F)cc3)c(=O)n(-c3cccc(N4CC[C@H](O)C4)n3)n2C)c(F)c1 [Example 102, N-[5-(2,6-difluoro-4-methoxyphenyl)-2-{6-[(3S)-3-hydroxypyrrolidin-1-yl]pyridin-2-yl}-1-methyl-3-oxo-2,3-dihydro-1H-pyrazol-4-yl]-4-(difluoromethoxy)benzamide] | 1000 | 2
15 | COc1cc(F)c(-c2c(NC(=O)c3ccc(OC(F)F)cc3)c(=O)n(-c3cc(OCCO)cc(C(F)(F)F)n3)n2C)c(F)c1 [Example 348, N-(5-(2,6-Difluoro-4-methoxyphenyl)-2-(4-(2-hydroxyethoxy)-6-(trifluoromethyl)pyridin-2-yl)-1-methyl-3-oxo-2,3-dihydro-1H-pyrazol-4-yl)-4-(difluoromethoxy)benzamide] | 2200 | 20
16 | COc1cc(F)c(-c2c(NC(=O)c3ccc(OC(F)F)cc3)c(=O)n(-c3nc(C4CC4)ccc3Br)n2C)c(F)c1 [Example 160, N-[2-(3-bromo-6-cyclopropylpyridin-2-yl)-5-(2,6-difluoro-4-methoxyphenyl)-1-methyl-3-oxo-2,3-dihydro-1H-pyrazol-4-yl]-4-(difluoromethoxy)benzamide] | > 10000 | 3
17 | COc1cc(F)c(-c2c(NC(=O)c3ccc(OC(F)F)cc3)c(=O)n(-c3ncccc3N(C)C)n2C)c(F)c1 [Example 142, N-[5-(2,6-difluoro-4-methoxyphenyl)-2-[3-(dimethylamino)pyridin-2-yl]-1-methyl-3-oxo-2,3-dihydro-1H-pyrazol-4-yl]-4-(difluoromethoxy)benzamide] | 3100 | 17
18 | COc1cc(F)c(-c2c(NC(=O)c3ccc(Cl)cc3)c(=O)n(-c3ccc(Cl)cc3)n2C)c(F)c1 [Example 36, 4-chloro-N-[2-(4-chlorophenyl)-5-(2,6-difluoro-4-methoxyphenyl)-1-methyl-3-oxo-2,3-dihydro-1H-pyrazol-4-yl]benzamide] | 270 | 9
19 | COc1cc(Cl)cc(-n2c(=O)c(NC(=O)c3ccc(OC(F)F)cc3)c(-c3c(F)cc(OC)cc3F)n2C)c1 [Example 124, N-[2-(3-chloro-5-methoxyphenyl)-5-(2,6-difluoro-4-methoxyphenyl)-1-methyl-3-oxo-2,3-dihydro-1H-pyrazol-4-yl]-4-(difluoromethoxy)benzamide] | > 10000 | 4
20 | CC(C)Oc1cc(OCC(C)(C)O)nc(-n2c(=O)c(NC(=O)c3ccc(OC(F)(F)F)cc3)c(-c3c(F)cc(Cl)cc3F)n2C)c1 [Example 408, N-(5-(4-chloro-2,6-difluorophenyl)-2-(6-(2-hydroxy-2-methylpropoxy)-4-isopropoxypyridin-2-yl)-1-methyl-3-oxo-2,3-dihydro-1H-pyrazol-4-yl)-4-(trifluoromethoxy)benzamide] | 1100 | 7
